Data: patent US20030215462A1, “Use of UGT inhibitors to increase bioavailability” (priority 2001, published 2003)

What was measured:
[1] = test system: UGT enzymes of human liver microsomes; assay: Inhibition of raloxifene glucuronidation (G1, G2) in human liver microsomes; assay type: biochemical; details: for % of control metabolism (SD, n = 3), raloxifene glucuronide G1 / % of control metabolism (SD, n = 3), raloxifene glucuronide G2: human liver microsomes 250 μg/ml, 15 min
From the text: Compounds were eluted using a binary solvent gradient system. […] Solvent B was methanol. […] Detection was at 280 nm.

[2] = test system: UGT enzymes of pooled human jejunum microsomes; assay: Inhibition of 2ME2 glucuronidation (MG1) in pooled human jejunum microsomes; assay type: biochemical; details: jejunum HJ61, 2ME2 50 μM
From the text: Compounds were eluted using a binary solvent gradient system where solvent A was dilute phosphoric acid (pH 3) and solvent B was 80:20 acetonitrile-methanol. […] Detection was at 280 nm.

[3] = target: T1, UGT1A3 (Homo sapiens, UniProt P35503); assay: Inhibition of raloxifene glucuronidation by recombinant UGT1A3 Supersomes; details: human; for activity at 15 min, 10 µM: inhibitor 10 μM; for activity at 15 min, 25 µM: inhibitor 25 μM; for activity at 15 min, 50 µM: inhibitor 50 μM
T1 sequence (P35503 29-534): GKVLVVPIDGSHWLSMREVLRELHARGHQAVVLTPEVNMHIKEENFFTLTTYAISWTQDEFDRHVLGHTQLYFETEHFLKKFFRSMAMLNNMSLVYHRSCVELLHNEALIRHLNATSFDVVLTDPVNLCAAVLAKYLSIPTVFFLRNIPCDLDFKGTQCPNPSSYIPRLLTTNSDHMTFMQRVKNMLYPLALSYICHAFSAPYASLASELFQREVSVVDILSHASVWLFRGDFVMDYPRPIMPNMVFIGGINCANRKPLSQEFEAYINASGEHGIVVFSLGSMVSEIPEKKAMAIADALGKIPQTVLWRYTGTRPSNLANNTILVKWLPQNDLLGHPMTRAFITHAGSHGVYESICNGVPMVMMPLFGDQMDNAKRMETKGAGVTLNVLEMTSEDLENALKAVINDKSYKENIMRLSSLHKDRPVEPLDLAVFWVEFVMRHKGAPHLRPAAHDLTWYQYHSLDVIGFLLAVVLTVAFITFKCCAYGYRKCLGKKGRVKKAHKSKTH
Procedure: (§1) Compounds were eluted using a binary solvent gradient system. Solvent A was water brought to pH 8 with NH4OH. Solvent B was methanol. Solvent flow rate was 1 ml/min and the column temperature was maintained at 50° C. Detection was at 280 nm. […] The system was then returned to the initial conditions and equilibrated for 3 min.

[4] = target: T2, UGT1A9 (Homo sapiens, UniProt O60656); assay: Inhibition of raloxifene glucuronidation by recombinant UGT1A9 Supersomes; details: for Inhibition of raloxifene glucuronidation, UGT1A9, first line per inhibitor (G1): first line (G1, metabolite not given); for Inhibition of raloxifene glucuronidation, UGT1A9, first line per inhibitor (G1) / Inhibition of raloxifene glucuronidation, UGT1A9, second line per inhibitor (G2): raloxifene 50 μM, 250 μg/ml Supersomes, 1 mM UDPGA, 15 min; for activity at 15 min, 2 μM / activity at 15 min, 5 µM / activity at 15 min, 10 µM / activity at 15 min, 25 µM / activity at 15 min, 50 µM: human, Supersomes with recombinant human UGT1A9, pH 7.5, probe raloxifene 50 μM; for Inhibition of raloxifene glucuronidation, UGT1A9, second line per inhibitor (G2): second line (G2, metabolite not given)
T2 sequence (O60656 26-530): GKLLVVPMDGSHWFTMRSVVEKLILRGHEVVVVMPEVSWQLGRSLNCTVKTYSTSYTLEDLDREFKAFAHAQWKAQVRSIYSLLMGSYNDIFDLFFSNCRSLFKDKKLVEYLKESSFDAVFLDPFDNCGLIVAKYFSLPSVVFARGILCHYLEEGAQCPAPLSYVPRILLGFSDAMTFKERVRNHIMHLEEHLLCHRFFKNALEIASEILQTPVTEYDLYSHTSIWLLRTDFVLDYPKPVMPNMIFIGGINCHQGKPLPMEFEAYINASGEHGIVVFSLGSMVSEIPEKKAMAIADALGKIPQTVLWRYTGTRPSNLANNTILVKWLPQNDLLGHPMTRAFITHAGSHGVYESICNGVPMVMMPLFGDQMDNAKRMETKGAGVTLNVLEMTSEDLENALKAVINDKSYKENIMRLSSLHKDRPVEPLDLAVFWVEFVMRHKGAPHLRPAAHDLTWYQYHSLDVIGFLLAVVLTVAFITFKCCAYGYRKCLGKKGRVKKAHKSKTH

[5] = target: T3, UGT1A10 (Homo sapiens, UniProt Q9HAW8); assay: Inhibition of raloxifene glucuronidation by recombinant UGT1A10 Bacculosomes; details: human; for activity at 15 min, 50 µM: Bacculosomes with recombinant human UGT1A10, pH 7.5, probe raloxifene 50 μM, inhibitor 50 μM
T3 sequence (Q9HAW8 26-530): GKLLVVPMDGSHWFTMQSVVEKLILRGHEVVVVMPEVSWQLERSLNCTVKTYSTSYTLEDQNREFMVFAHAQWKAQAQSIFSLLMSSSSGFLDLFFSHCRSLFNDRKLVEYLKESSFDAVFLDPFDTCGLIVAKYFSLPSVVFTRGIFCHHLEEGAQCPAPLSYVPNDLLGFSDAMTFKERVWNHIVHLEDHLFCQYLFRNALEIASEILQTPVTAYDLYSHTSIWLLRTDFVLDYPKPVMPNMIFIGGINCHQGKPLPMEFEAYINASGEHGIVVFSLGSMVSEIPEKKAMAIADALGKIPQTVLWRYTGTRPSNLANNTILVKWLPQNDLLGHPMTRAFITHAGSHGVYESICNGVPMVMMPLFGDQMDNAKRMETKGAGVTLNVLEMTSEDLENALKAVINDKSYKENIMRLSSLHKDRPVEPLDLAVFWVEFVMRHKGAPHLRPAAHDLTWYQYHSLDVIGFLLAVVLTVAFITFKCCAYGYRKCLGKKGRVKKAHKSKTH
Procedure: as §1

[6] = inhibitor 2 μM, raloxifene 50 μM
[7] = inhibitor 5 μM, raloxifene 50 μM
[8] = inhibitor 10 μM, raloxifene 50 μM
[9] = inhibitor 25 μM, raloxifene 50 μM
[10] = inhibitor 50 μM, raloxifene 50 μM
[11] = inhibitor 100 μM, raloxifene 50 μM
[12] = inhibitor 500 μM, raloxifene 50 μM
[13] = liver lot 032101, inhibitor 10 μM
[14] = liver lot 062101, inhibitor 10 μM
[15] = liver lot 083000, inhibitor 10 μM
[16] = raloxifene 50 μM, inhibitor 10 μM
[17] = raloxifene 50 μM, inhibitor 25 μM
[18] = raloxifene 50 μM, inhibitor 50 μM
[19] = raloxifene 50 μM, inhibitor 100 μM
[20] = Supersomes with recombinant human UGT1A3, pH 7.5, probe raloxifene 50 μM, formation of glucuronide G1, % of control metabolism, raloxifene G1, UGT1A3
[21] = Supersomes with recombinant human UGT1A3, pH 7.5, probe raloxifene 50 μM, formation of glucuronide G2, % of control metabolism, raloxifene G2, UGT1A3
[22] = recombinant UGT1A3 Supersomes, pH 7.5, probe raloxifene 50 μM (formation of glucuronide G1), Inhibition of raloxifene glucuronidation, G1, UGT1A3, G1, raloxifene 50 μM, 250 μg/ml Supersomes, 1 mM UDPGA, 15 min
[23] = recombinant UGT1A3 Supersomes, pH 7.5, probe raloxifene 50 μM (formation of glucuronide G2), Inhibition of raloxifene glucuronidation, G2, UGT1A3, G2, raloxifene 50 μM, 250 μg/ml Supersomes, 1 mM UDPGA, 15 min

SMILES: CC/C(=C(/CC)c1ccc(O)cc1)c1ccc(O)cc1 [Diethylstilbestrol, reference compound]
- % of control metabolism (SD, n = 3), raloxifene glucuronide G1 [1, 6]: 94 (6) %
- % of control metabolism (SD, n = 3), raloxifene glucuronide G1 [1, 7]: 83 (1) %
- % of control metabolism (SD, n = 3), raloxifene glucuronide G1 [1, 8]: 58 (3) %
- % of control metabolism (SD, n = 3), raloxifene glucuronide G1 [1, 9]: 36 (2) %
- % of control metabolism (SD, n = 3), raloxifene glucuronide G1 [1, 10]: 14 (1) %
- % of control metabolism (SD, n = 3), raloxifene glucuronide G1 [1, 11]: 8 (0) %
- % of control metabolism (SD, n = 3), raloxifene glucuronide G1 [1, 12]: 0 (0) %
- % of control metabolism (SD, n = 3), raloxifene glucuronide G2 [1, 6]: 107 (5) %
- % of control metabolism (SD, n = 3), raloxifene glucuronide G2 [1, 7]: 109 (1) %
- % of control metabolism (SD, n = 3), raloxifene glucuronide G2 [1, 8]: 111 (7) %
- % of control metabolism (SD, n = 3), raloxifene glucuronide G2 [1, 9]: 100 (5) %
- % of control metabolism (SD, n = 3), raloxifene glucuronide G2 [1, 10]: 58 (2) %
- % of control metabolism (SD, n = 3), raloxifene glucuronide G2 [1, 11]: 43 (0) %
- % of control metabolism (SD, n = 3), raloxifene glucuronide G2 [1, 12]: 0 (0) %
- % of control metabolism, raloxifene G1 [1, 13]: 70 (2) %
- % of control metabolism, raloxifene G2 [1, 13]: 96 (1) %
- % of control metabolism, raloxifene G1 [1, 14]: 89 (2) %
- % of control metabolism, raloxifene G2 [1, 14]: 83 (2) %
- % of control metabolism, raloxifene G1 [1, 15]: 58 (3) %
- % of control metabolism, raloxifene G2 [1, 15]: 111 (7) %
- % of control metabolism, raloxifene G1 [1, 16]: 58 (3) %
- % of control metabolism, raloxifene G2 [1, 16]: 111 (7) %
- % of control metabolism, raloxifene G1 [1, 17]: 36 (1) %
- % of control metabolism, raloxifene G2 [1, 17]: 100 (5) %
- % of control metabolism, raloxifene G1 [1, 18]: 14 (1) %
- % of control metabolism, raloxifene G2 [1, 18]: 58 (2) %
- % of control metabolism, raloxifene G1 [1, 19]: 8 (0) %
- % of control metabolism, raloxifene G2 [1, 19]: 43 (0) %
- residual metabolism (% of control), 2ME2 MG1 ([2]; inhibitor 1 μM): 93 (4) %
- residual metabolism (% of control), 2ME2 MG1 ([2]; inhibitor 10 μM): 75 (1) %
- activity at 15 min, 10 µM [3, 20]: 65%
- activity at 15 min, 25 µM [3, 20]: 32%
- activity at 15 min, 50 µM [3, 20]: 14%
- activity at 15 min, 10 µM [3, 21]: 74%
- activity at 15 min, 25 µM [3, 21]: 48%
- activity at 15 min, 50 µM [3, 21]: 21%
- activity at 15 min, 10 µM [3, 22]: 65%
- activity at 15 min, 25 µM [3, 22]: 32%
- activity at 15 min, 50 µM [3, 22]: 14%
- activity at 15 min, 10 µM [3, 23]: 74%
- activity at 15 min, 25 µM [3, 23]: 48%
- activity at 15 min, 50 µM [3, 23]: 21%
- Inhibition of raloxifene glucuronidation, UGT1A9, first line per inhibitor (G1) ([4]; inhibitor 2 μM): 90 (0)
- Inhibition of raloxifene glucuronidation, UGT1A9, first line per inhibitor (G1) ([4]; inhibitor 5 μM): 86 (0)
- Inhibition of raloxifene glucuronidation, UGT1A9, first line per inhibitor (G1) ([4]; inhibitor 10 μM): 78 (3)
- Inhibition of raloxifene glucuronidation, UGT1A9, first line per inhibitor (G1) ([4]; inhibitor 25 μM): 49 (5)
- Inhibition of raloxifene glucuronidation, UGT1A9, first line per inhibitor (G1) ([4]; inhibitor 50 μM): 31 (2)
- activity at 15 min, 2 μM ([4]; formation of glucuronide G1, % of control metabolism, raloxifene G1, UGT1A9, inhibitor 2 μM): 90%
- activity at 15 min, 5 µM ([4]; formation of glucuronide G1, % of control metabolism, raloxifene G1, UGT1A9, inhibitor 5 μM): 86%
- activity at 15 min, 10 µM ([4]; formation of glucuronide G1, % of control metabolism, raloxifene G1, UGT1A9, inhibitor 10 μM): 78%
- activity at 15 min, 25 µM ([4]; formation of glucuronide G1, % of control metabolism, raloxifene G1, UGT1A9, inhibitor 25 μM): 49%
- activity at 15 min, 50 µM ([4]; formation of glucuronide G1, % of control metabolism, raloxifene G1, UGT1A9, inhibitor 50 μM): 31%
- activity at 15 min, 2 μM ([4]; formation of glucuronide G2, % of control metabolism, raloxifene G2, UGT1A9, inhibitor 2 μM): 175%
- activity at 15 min, 5 µM ([4]; formation of glucuronide G2, % of control metabolism, raloxifene G2, UGT1A9, inhibitor 5 μM): 260%
- activity at 15 min, 10 µM ([4]; formation of glucuronide G2, % of control metabolism, raloxifene G2, UGT1A9, inhibitor 10 μM): 290%
- activity at 15 min, 25 µM ([4]; formation of glucuronide G2, % of control metabolism, raloxifene G2, UGT1A9, inhibitor 25 μM): 309%
- activity at 15 min, 50 µM ([4]; formation of glucuronide G2, % of control metabolism, raloxifene G2, UGT1A9, inhibitor 50 μM): 245%
- Inhibition of raloxifene glucuronidation, UGT1A9, second line per inhibitor (G2) ([4]; inhibitor 2 μM): 175 (0)
- Inhibition of raloxifene glucuronidation, UGT1A9, second line per inhibitor (G2) ([4]; inhibitor 5 μM): 260 (3)
- Inhibition of raloxifene glucuronidation, UGT1A9, second line per inhibitor (G2) ([4]; inhibitor 10 μM): 290 (9)
- Inhibition of raloxifene glucuronidation, UGT1A9, second line per inhibitor (G2) ([4]; inhibitor 50 μM): 245 (3)
- activity at 15 min, 10 µM ([5]; Bacculosomes with recombinant human UGT1A10, pH 7.5, % of control metabolism, raloxifene glucuronide (one value printed, G1 or G2 not stated), UGT1A10, inhibitor 10 μM): 70%
- activity at 15 min, 25 µM ([5]; Bacculosomes with recombinant human UGT1A10, pH 7.5, % of control metabolism, raloxifene glucuronide (one value printed, G1 or G2 not stated), UGT1A10, inhibitor 25 μM): 74%
- activity at 15 min, 50 µM ([5]; formation of glucuronide G1, % of control metabolism, raloxifene G1, UGT1A10): 50%
- activity at 15 min, 50 µM ([5]; formation of glucuronide G2, % of control metabolism, raloxifene G2, UGT1A10): 39%
